Article PMC9921851, “Synthesis and Preclinical Evaluation of Three Novel ^68Ga-Labeled Bispecific PSMA/FAP-Targeting Tracers for Prostate Cancer Imaging” (Molecules, 2023)
Read-outs that look alike come from different tables or passages of the source.

Columns and labels:
[1] = target: T1, PSMA (Homo sapiens, UniProt Q04609); test: In vitro PSMA competition binding assay ([^18F]DCFPyL displacement on LNCaP cells); settings: radioligand [^18F]DCFPyL, n = 3
T1 construct: endogenous in cells; host or cells: LNCaP cells (ATCC via Cedarlane)
Description: The binding affinities of Ga-AV01017, Ga-AV01030, Ga-AV01038, Ga-HTK03041, and Ga-FAPI-04 to PSMA were measured by a cell-based binding assay using PSMA-expressing LNCaP prostate cancer cells. The nonradioactive Ga-complexed standards, except Ga-FAPI-04, inhibited the binding of [^18F]DCFPyL to LNCaP cells in a dose-dependent manner (Figure 3A).
The PSMA binding assays were conducted following previously published procedures using LNCaP cells and [^18F]DCFPyL as the radioligand [34, 42, 43]. Data analyses of IC50 were performed using the nonlinear regression algorithm of GraphPad Prism 7 (San Diego, CA, USA) software.

[2] = tested on: PSMA-expressing LNCaP tumor xenografts; set-up: method as in earlier work; settings: LNCaP tumor-bearing mice, 1 h post injection, reported previously, ref 4 (supplement); cited from earlier work
[3] = tested on: FAP-expressing HEK293T:hFAP tumor xenografts; test: Ex vivo biodistribution in HEK293T:hFAP tumor-bearing mice; settings: 1 h post injection, mean ± SD, n = 4
Description: Biodistribution studies were also conducted at 1 h post injection with [^68Ga]Ga-AV01017, [^68Ga]Ga-AV01030, [^68Ga]Ga-AV01038, [^68Ga]Ga-HTK03041, and [^68Ga]Ga-FAPI-04 in HEK293T:hFAP tumor-bearing mice (Figure 6 and Table S5, Supplementary Materials). Tumor uptake values for [^68Ga]Ga-AV01017, [^68Ga]Ga-AV01030, [^68Ga]Ga-AV01038, [^68Ga]Ga-HTK03041, and [^68Ga]Ga-FAPI-04 were 2.99 ± 0.37, 3.69 ± 0.81, 3.64 ± 0.83, 0.62 ± 0.19, and 12.5 ± 2.00 %ID/g, respectively. There was a very low tumor uptake in mice injected with [^68Ga]Ga-HTK03041, showing very minimal FAP expression in this tumor model. The uptake levels of these tracers on the major organs and tissues are consistent with the trends observed in the LNCaP tumor-baring mice (Figure 5 and Supplemental Table S4).
(§1) Imaging and biodistribution studies were performed using male NOD.Cg-Rag1tm1Mom Il2rgtm1Wjl/SzJ (NRG) mice following previously published procedures. The experiments were conducted according to the guidelines established by the Canadian Council on Animal Care and approved by Animal Ethics Committee of the University of British Columbia. The mice were briefly sedated by inhalation of 2.5% isoflurane in oxygen, and 100 µL LNCaP (2 × 10^5 cells) or HEK293T:hFAP (8.5 × 10^6 cells) cells were inoculated subcutaneously behind the left shoulder. When the tumor grew to 5–8 mm in diameter over 3–4 weeks and 4–5 weeks for HEK293T:hFAP and LNCaP tumors, respectively, the mice were used for PET/CT imaging and biodistribution studies.
(§2) For biodistribution studies, the mice were injected with the radiotracer (~2–4 MBq) as described above. At 1 h post injection, the mice were euthanized by CO2 inhalation. Blood was withdrawn by cardiac puncture, and organs/tissues of interest were collected, weighed, and counted using a Perkin Elmer (Waltham, MA, USA) Wizard2 2480 automatic gamma counter.

[4] = tested on: PSMA-expressing LNCaP tumor xenografts; test: Ex vivo biodistribution in LNCaP tumor-bearing mice; settings: LNCaP tumor-bearing mice, 1 h post injection, mean ± SD, n = 4
Description: Biodistribution studies were conducted at 1 h post injection with ^68Ga-labeled AV01017, AV01030, AV01038, HTK03041, and FAPI-04 in LNCaP tumor-bearing mice (Figure 5 and Table S4, Supplementary Materials). The results were consistent with the observation from their PET images. Tumor uptake values for [^68Ga]Ga-AV01017, [^68Ga]Ga-AV01030, [^68Ga]Ga-AV01038, [^68Ga]Ga-HTK03041, and [^68Ga]Ga-FAPI-04 were 4.38 ± 0.55, 5.17 ± 0.51, 4.25 ± 0.86, 23.1 ± 6.11, and 3.15 ± 1.43 %ID/g, respectively. […] Although not statistically significant, the bispecific tracers with a longer linker tend to have a higher blood uptake value (9.24 ± 1.55 %ID/g for [^68Ga]Ga-AV01017; 7.07 ± 0.31%ID/g for [^68Ga]Ga-AV01038; 5.75 ± 0.59 %ID/g for [^68Ga]Ga-AV01030) and a lower tumor-to-blood ratio (0.48 ± 0.11 for [^68Ga]Ga-AV01017; 0.60 ± 0.13 for [^68Ga]Ga-AV01038; 0.89 ± 0.03 for [^68Ga]Ga-AV01030).
as §1, §2

T1 sequence (Q04609 whole entry): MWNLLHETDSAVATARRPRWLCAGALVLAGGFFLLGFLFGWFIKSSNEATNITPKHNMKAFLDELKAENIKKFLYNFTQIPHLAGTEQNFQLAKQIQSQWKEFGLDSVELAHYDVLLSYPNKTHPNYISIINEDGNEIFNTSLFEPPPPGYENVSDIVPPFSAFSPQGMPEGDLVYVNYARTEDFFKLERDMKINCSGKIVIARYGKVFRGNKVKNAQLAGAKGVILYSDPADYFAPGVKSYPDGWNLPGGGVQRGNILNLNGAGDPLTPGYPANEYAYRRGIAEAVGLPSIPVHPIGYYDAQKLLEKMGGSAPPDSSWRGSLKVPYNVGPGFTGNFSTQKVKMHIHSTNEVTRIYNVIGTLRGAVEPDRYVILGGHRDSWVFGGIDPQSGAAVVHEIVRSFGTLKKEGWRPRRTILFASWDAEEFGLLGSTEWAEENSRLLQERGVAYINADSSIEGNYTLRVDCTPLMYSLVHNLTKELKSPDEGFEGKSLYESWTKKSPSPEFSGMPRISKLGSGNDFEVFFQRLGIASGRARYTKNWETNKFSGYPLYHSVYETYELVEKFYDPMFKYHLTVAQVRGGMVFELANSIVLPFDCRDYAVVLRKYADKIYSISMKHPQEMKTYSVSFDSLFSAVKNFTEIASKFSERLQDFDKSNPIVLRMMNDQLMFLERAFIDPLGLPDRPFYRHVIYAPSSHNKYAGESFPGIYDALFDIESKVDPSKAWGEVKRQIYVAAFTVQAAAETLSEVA

N#C[C@@H]1CC(F)(F)CN1C(=O)CNC(=O)c1ccnc2ccc(OCCCN3CCN(C(=O)CN4CCN(CC(=O)[O-])CCN(CC(=O)[O-])CCN(CC(=O)[O-])CC4)CC3)cc12.[Ga+3] [Ga-FAPI-04, reference compound]
IC50 [1]: > 1000 nM

O=C([O-])CN1CCN(CC(=O)[O-])CCN(CC(=O)NC[C@H]2CC[C@H](C(=O)N[C@@H](Cc3c4ccccc4cc4ccccc34)C(=O)NCCCC[C@H](NC(=O)N[C@@H](CCC(=O)O)C(=O)O)C(=O)O)CC2)CCN(CC(=O)[O-])CC1.[68Ga+3] [[^68Ga]Ga-HTK03041, reference compound]
Blood uptake [2]: 1.43 ± 0.30 %ID/g
Bone uptake [2]: 1.29 ± 0.45 %ID/g
Brain uptake [2]: 0.10 ± 0.05 %ID/g
Fat uptake [2]: 2.06 ± 0.59 %ID/g
Heart uptake [2]: 1.82 ± 0.62 %ID/g
Kidneys uptake [2]: 170 ± 26.4 %ID/g
LNCaP tumor uptake [2]: 23.1 ± 6.11 %ID/g
Liver uptake [2]: 1.38 ± 0.25 %ID/g
Muscle uptake [2]: 0.75 ± 0.09 %ID/g
Pancreas uptake [2]: 1.47 ± 0.16 %ID/g
Small Intestine uptake [2]: 1.14 ± 0.18 %ID/g
Spleen uptake [2]: 8.95 ± 3.22 %ID/g
Stomach uptake [2]: 0.41 ± 0.11 %ID/g
Testes uptake [2]: 1.34 ± 0.22 %ID/g
Thyroid uptake [2]: 2.48 ± 0.44 %ID/g
Tumor/blood uptake ratio [2]: 17.3 ± 7.24
Tumor/bone uptake ratio [2]: 20.1 ± 9.48
Tumor/kidney uptake ratio [2]: 0.14 ± 0.04
Tumor/muscle uptake ratio [2]: 31.6 ± 12.1
Adrenal glands uptake [3]: 4.18 ± 0.48 %ID/g
Blood uptake [3]: 0.71 ± 0.07 %ID/g
Bone uptake [3]: 0.42 ± 0.11 %ID/g
Brain uptake [3]: 0.03 ± 0.00 %ID/g
Fat uptake [3]: 0.55 ± 0.12 %ID/g
HEK293T:hFAP tumor uptake [3]: 0.62 ± 0.19 %ID/g
Heart uptake [3]: 0.98 ± 0.07 %ID/g
Kidneys uptake [3]: 68.4 ± 19.2 %ID/g
Lacrimal gland uptake [3]: 0.25 ± 0.33 %ID/g
Large Intestine uptake [3]: 0.43 ± 0.04 %ID/g
Liver uptake [3]: 0.72 ± 0.06 %ID/g
Lungs uptake [3]: 2.43 ± 0.08 %ID/g
Muscle uptake [3]: 0.47 ± 0.03 %ID/g
Pancreas uptake [3]: 0.71 ± 0.07 %ID/g
Salivary glands uptake [3]: 2.29 ± 0.16 %ID/g
Seminal vesicle uptake [3]: 0.32 ± 0.03 %ID/g
Small Intestine uptake [3]: 0.71 ± 0.01 %ID/g
Spleen uptake [3]: 8.09 ± 2.37 %ID/g
Stomach uptake [3]: 0.22 ± 0.04 %ID/g
Testes uptake [3]: 0.60 ± 0.41 %ID/g
Thyroid uptake [3]: 1.38 ± 0.10 %ID/g
Tumor/blood uptake ratio [3]: 0.83 ± 0.54
Tumor/bone uptake ratio [3]: 1.39 ± 0.58
Tumor/kidney uptake ratio [3]: 0.01 ± 0.01
Tumor/muscle uptake ratio [3]: 1.22 ± 0.73

N#C[C@@H]1CC(F)(F)CN1C(=O)CNC(=O)c1ccnc2ccc(OCCCN3CCN(C(=O)CN4CCN(CC(=O)[O-])CCN(CC(=O)[O-])CCN(CC(=O)[O-])CC4)CC3)cc12.[68Ga+3] [[^68Ga]Ga-FAPI-04, reference compound]
Adrenal glands uptake [3]: 1.07 ± 0.32 %ID/g
Blood uptake [3]: 1.07 ± 0.08 %ID/g
Bone uptake [3]: 3.36 ± 1.09 %ID/g
Brain uptake [3]: 0.04 ± 0.00 %ID/g
Fat uptake [3]: 0.10 ± 0.01 %ID/g
HEK293T:hFAP tumor uptake [3]: 12.5 ± 2.00 %ID/g
Heart uptake [3]: 0.34 ± 0.04 %ID/g
Kidneys uptake [3]: 1.83 ± 0.16 %ID/g
Liver uptake [3]: 0.36 ± 0.02 %ID/g
Lungs uptake [3]: 0.74 ± 0.11 %ID/g
Muscle uptake [3]: 0.67 ± 0.05 %ID/g
Pancreas uptake [3]: 0.37 ± 0.05 %ID/g
Seminal vesicle uptake [3]: 0.15 ± 0.04 %ID/g
Small Intestine uptake [3]: 0.36 ± 0.08 %ID/g
Spleen uptake [3]: 0.56 ± 0.11 %ID/g
Stomach uptake [3]: 0.07 ± 0.01 %ID/g
Testes uptake [3]: 0.28 ± 0.04 %ID/g
Tumor/blood uptake ratio [3]: 11.7 ± 2.04
Tumor/bone uptake ratio [3]: 3.93 ± 1.16
Tumor/kidney uptake ratio [3]: 6.85 ± 1.33
Tumor/muscle uptake ratio [3]: 18.8 ± 4.09
Adrenal glands uptake [4]: 2.16 ± 1.08 %ID/g
Blood uptake [4]: 2.16 ± 0.33 %ID/g
Bone uptake [4]: 4.27 ± 0.74 %ID/g
Brain uptake [4]: 0.06 ± 0.00 %ID/g
Fat uptake [4]: 0.55 ± 0.47 %ID/g
Heart uptake [4]: 0.70 ± 0.04 %ID/g
Kidneys uptake [4]: 2.36 ± 0.38 %ID/g
LNCaP tumor uptake [4]: 3.15 ± 1.43 %ID/g
Lacrimal glands uptake [4]: 0.06 ± 0.07 %ID/g
Large Intestine uptake [4]: 0.73 ± 0.09 %ID/g
Liver uptake [4]: 0.76 ± 0.08 %ID/g
Lungs uptake [4]: 1.23 ± 0.07 %ID/g
Muscle uptake [4]: 1.04 ± 0.20 %ID/g
Pancreas uptake [4]: 0.99 ± 0.25 %ID/g
Salivary glands uptake [4]: 1.36 ± 0.92 %ID/g
Seminal vesicle uptake [4]: 3.72 ± 5.09 %ID/g
Small Intestine uptake [4]: 0.74 ± 0.12 %ID/g
Spleen uptake [4]: 0.67 ± 0.11 %ID/g
Stomach uptake [4]: 0.26 ± 0.04 %ID/g
Testes uptake [4]: 0.42 ± 0.04 %ID/g
Thyroid uptake [4]: 3.62 ± 1.01 %ID/g
Tumor/blood uptake ratio [4]: 1.04 ± 0.42
Tumor/bone uptake ratio [4]: 0.51 ± 0.28
Tumor/kidney uptake ratio [4]: 0.90 ± 0.28
Tumor/muscle uptake ratio [4]: 2.30 ± 0.79
